Source: patent publication US10441537B2, “Unit doses, aerosols, kits, and methods for treating heart conditions by pulmonary administration” (InCarda Therapeutics, Inc., priority 2017, dated 2019)

Experiments:
healthy volunteers [1] = assay: Phase 1 study: ECG pharmacodynamics (QRS, PR, QTcF, T-wave) and PK-PD; assay type: in vivo, human
Method: The ECG recordings included: 1) Continuous real-time ECG telemetry for observation of patient safety starting at 12 hours pre-dose and continuing for 12 hours post-dose, 2) 12-lead ECGs for immediate review by medical staff to ascertain the safety of the procedures and drug administration were recorded at pre-specified (or any time as needed) before dosing (pre-dose) and after dosing (post-dose), and 3) continuous 12-lead ECG (cECG, iCardiac Holter monitoring) was recorded for 24 hours, starting 1 hour prior to dosing and up to 24 hours post dosing.
As expected from non-steady state conditions, and shown in FIGS. 84A and 84B, a temporal dissociation is observed between ([Flec]plasma) and ΔQRS. […] The hysteresis between concentrations and responses (QRS) applies for both routes of administration, IV and inhalation.

[2] = Plasma concentrations in LV, femoral vein and pulmonary artery of dogs (Example 7); assay type: in vivo
[3] = test system: induced atrial fibrillation; assay: Induced atrial fibrillation model in anesthetized dogs, intratracheal (IT) administration; assay type: in vivo
Method: Atrial Fibrillation Model: Anesthesia/Surgical Preparation: A venous catheter was placed in a peripheral vessel (i.e., cephalic) for administration of anesthetic. […] Following induction, animals were endotracheally intubated and mechanically ventilated (˜12 breaths/minute with a tidal volume of 200-300 mL). Subsequently, a cut-down on a jugular vein permitted introduction of a pacing lead into the right atrium. Transthoracic electrodes forming ECG lead II were placed. For test/vehicle article delivery, a 4F catheter was introduced through the trachea and wedged into a small airway, and a venous catheter was placed in a peripheral vessel (i.e., cephalic). […] Approximately 5 min after administration of this parasympathomimetic was started; the following experiments were performed: […] Observations were made for up to 10 minutes. […] Vehicle was only water.

healthy volunteers [4] = assay: Phase 1 study: auscultation, respiration rate, chest x-rays; assay type: in vivo, human
Method: (§1) Pulmonary safety was assessed by performing lung spirometry tests and measuring peripheral oxygen saturation (SpO2%) prior to dosing and at various times after completion of the inhalation. Lung spirometry tests evaluated all lung function parameters, including forced vital capacity (FVC), forced expiratory volume in 1 second (FEV1), peak expiratory flow (PEF), and forced expiratory flow at 25% and 75% intervals (FEF25-75). Auscultation and respiration rate were also measured prior to dosing and at various times after inhalation. Chest x-rays were performed on subjects before and after flecainide inhalation.

in vivo = conditions: male, Yorkshire, pig, iv, 2 mg/kg
Method: The studies were carried out in male Yorkshire pigs (n=9) weighing 36±1.0 kg (mean±SEM). The pigs were pre-anesthetized with telazol (4.7 mg/kg, intramuscular) and subsequently further anesthetized using alpha-chloralose (80 mg/kg, IV bolus, followed by 24 mg/kg/h continuous IV infusion). The animals were intubated and ventilated at a constant rate of 12 breaths/min and tidal volume of 400 ml per stroke.
Simultaneous blood samples were drawn from the pigtail catheter positioned in the LV and from a catheter in the jugular vein.
The samples were centrifuged and frozen at −80° C. until drug level determination was performed using a bioanalytical assay method developed by Climax Laboratories, Inc.

healthy volunteers [5] = assay: Phase 1 study: peripheral oxygen saturation (SpO2%); assay type: in vivo, human; conditions: for Oxygen Saturation (SpO2%), Mean: Predose
Method: as §1

[6] = test system: induced atrial fibrillation; assay: Conversion of ACh/burst-pacing-induced AF in intact porcine model (Example 6); assay type: in vivo, pigs
Method: After 30-min recovery, the alternate intervention was tested. Times for conversion to normal sinus rhythm were compared.

[7] = before and after inhalation of 20, 30, 40 mg eTLD

O=C(NCC1CCCCN1)c1cc(OCC(F)(F)F)ccc1OCC(F)(F)F (centres unmarked) [flecainide, flecainide acetate]
QRS interval duration (healthy volunteers [1]; 30 min after completion of inhalation, Cohorts 1-3): returned to near pre-dose levels | T-wave morphology (healthy volunteers [1]; IV infusion 2 mg/kg): T-wave notching | non-specific intraventricular conduction delay (healthy volunteers [1]; IV infusion 2 mg/kg): 3 of 6 subjects | smaller changes in QRS interval duration, inhalation vs IV infusion (healthy volunteers [1]; eTLD 30 mg vs ˜150 mg IV): 2.7 fold | lower plasma concentration by inhalation for QRS prolongation as after IV (6.2/2.7) (healthy volunteers [1]; in vivo, iv): 2.3 fold | T-wave morphology (healthy volunteers [1]; inhalation 20, 30 and 40 mg eTLD): No changes in T-wave morphology | lower plasma level after inhalation at near-equal ΔQRS (healthy volunteers [1]; inhalation vs IV): 2.6 fold | mean ΔQRS (healthy volunteers [1]; inhaled 20 mg eTLD, between 1 and 3 minutes after end of inhalation): small increase of mean ΔQRS | PR interval duration prolonged from start of inhalation (healthy volunteers [1]; inhaled 30 mg eTLD, 5 min after completion of inhalation): 12 ms | QRS duration (healthy volunteers [1]; inhaled 40 mg eTLD, Cohort 2): transient increase between 1 and 3 minutes post-dosing | changes of the PR interval duration (healthy volunteers [1]; inhaled 20 or 40 mg eTLD): Minimal or no changes | non-specific intraventricular conduction delay (healthy volunteers [1]; oral inhalation eTLD of 30 mg): not observed in any of the same subjects | decrease of R-wave amplitude (QRSa) (healthy volunteers [1]; subject R222, 40 mg eTLD, 3 min post-dosing): 400 μV | increase of QRS duration (QRSd) (healthy volunteers [1]; subject R222, inhaled 40 mg eTLD, 1 minute post-dosing): 10 ms | pH of solution in water (2.6 mg/mL): 5.0 | appearance of solution (distilled water, diltiazem hydrochloride 50 mg/ml, flecainide acetate 30 mg/ml): clear with no visible particulate matter | plasma concentrations transiently higher in the LV than in the PA (summary) ([2]; IT): ~2.5 fold | plasma levels higher in the LV than in the systemic venous circulation ([2]; IT, at the time of conversion): ~2 fold | plasma concentrations transiently higher in the PA than in the LV (summary) ([2]; IV infusion): ~3.5 fold | time after administration at which LV and PA concentrations were nearly equal ([2]; IV or IT): 4 to 10 min | ECG trace: Afib conversion ([3]; 2 mg/kg body weight (FIG. 12)): Afib converting as soon as dosing occurred | ECG trace: Afib conversion ([3]; 4 mg/kg body weight, intra-tracheal instillation (FIG. 11)): Afib converting into normal sinus rhythm | conversion of Atrial Fibrillation to normal sinus rhythm ([3]; IT bolus): rapidly converted the Atrial Fibrillation to normal sinus rhythm | cardiovascular effect when given by intratracheal instillation (summary) ([3]; dog, in vivo): clear cardiovascular effect | ventricular rate ([3]; large pulmonary doses): slower ventricular rates | drop in mean arterial pressure ([3]; pulmonary dose 2-4 mg/kg): None to minimal drop in mean arterial pressure | conversion of induced atrial fibrillation to normal sinus rhythm ([3]; pulmonary dose 2-4 mg/kg body weight): converted the induced atrial fibrillation to normal sinus rhythm | respiratory rate (healthy volunteers [4]; Cohorts 1, 2, 3 and 5): minimal or no changes in respiratory rate | Auscultation (healthy volunteers [4]; [7]): normal in all subjects | Chest x-rays (healthy volunteers [4]; [7]): normal and showed no changes | respiration rate (healthy volunteers [4]; [7]): No changes in respiration rate | concentration at 30 min (in vivo; LV plasma level): 497 ± 190 ng/mL | concentration at 30 min (in vivo; Venous plasma level): 519 ± 196 ng/mL | SpO2%, Mean (healthy volunteers [5]; 20 mg eTLD, 15 min Postdose): 97% | SpO2%, Mean (healthy volunteers [5]; 20 mg eTLD, 30 min Postdose): 97% | SpO2%, Mean (healthy volunteers [5]; 20 mg eTLD, 45 min Postdose): 97% | SpO2%, Mean (healthy volunteers [5]; 20 mg eTLD, 60 min Postdose): 97% | SpO2%, Mean (healthy volunteers [5]; 20 mg eTLD, 75 min Postdose): 98% | SpO2%, Mean (healthy volunteers [5]; 20 mg eTLD, 90 min Postdose): 98% | SpO2%, Mean (healthy volunteers [5]; 20 mg eTLD, 105 min Postdose): 97% | SpO2%, Mean (healthy volunteers [5]; 20 mg eTLD, 120 min Postdose): 98% | SpO2%, Mean (healthy volunteers [5]; 40 mg eTLD, 15 min Postdose): 96% | SpO2%, Mean (healthy volunteers [5]; 40 mg eTLD, 30 min Postdose): 97% | SpO2%, Mean (healthy volunteers [5]; 40 mg eTLD, 45 min Postdose): 96% | SpO2%, Mean (healthy volunteers [5]; 40 mg eTLD, 60 min Postdose): 96% | SpO2%, Mean (healthy volunteers [5]; 40 mg eTLD, 75 min Postdose): 97% | SpO2%, Mean (healthy volunteers [5]; 40 mg eTLD, 90 min Postdose): 97% | SpO2%, Mean (healthy volunteers [5]; 40 mg eTLD, 105 min Postdose): 97% | SpO2%, Mean (healthy volunteers [5]; 40 mg eTLD, 120 min Postdose): 97% | pre-dose and post-dose values for SpO2 (normal range) (healthy volunteers [5]; Cohorts 1 and 2): 97-98% | Oxygen Saturation (SpO2%), Mean (healthy volunteers [5]; inhaled 20 mg eTLD, Cohort 1 (n=6)): 98% | Oxygen Saturation (SpO2%), Mean (healthy volunteers [5]; inhaled 40 mg eTLD, Cohort 2 (n=10)): 97% | time within which plasma concentration reached levels required for conversion ([6]; IT 0.75 mg/kg and 1.5 mg/kg (FIG. 66A)): ≤ 10 min | dominant frequency of AF ([6]; IT 0.75 mg/kg and 1.5 mg/kg (FIG. 67)): reduced the dominant frequency of AF | AF conversion in representative electrograms ([6]; IT 1.5 mg/kg (FIG. 65)): 5 min | MAP and ventricular rate after conversion ([6]; IT 1.5 mg/kg or 0.75 mg/kg): restored MAP and ventricular rate to baseline values
